Results published in patent US8735388B2, “Heterocyclic compounds with affinity to muscarinic receptors” (Abbvie B. V. A., priority 2007, dated 2014).

Columns and labels:
[1] = molecular target: T1, Muscarine M4 (GPCR-A-MA-ACH M4) (Homo sapiens, UniProt P08173); assay: Muscarine M4 cell-based functional assay (CHO cells, Ca2+ - Aequorin luminescence); settings: human M4, CHO cells; agonist mode, reference agonist oxotremorine; read-out: Cell funct. Musc. M4 Agonism pEC50 (converted)
T1 construct: expressed in transfected cells; host or cells: CHO cells
T1 sequence (P08173 1-479): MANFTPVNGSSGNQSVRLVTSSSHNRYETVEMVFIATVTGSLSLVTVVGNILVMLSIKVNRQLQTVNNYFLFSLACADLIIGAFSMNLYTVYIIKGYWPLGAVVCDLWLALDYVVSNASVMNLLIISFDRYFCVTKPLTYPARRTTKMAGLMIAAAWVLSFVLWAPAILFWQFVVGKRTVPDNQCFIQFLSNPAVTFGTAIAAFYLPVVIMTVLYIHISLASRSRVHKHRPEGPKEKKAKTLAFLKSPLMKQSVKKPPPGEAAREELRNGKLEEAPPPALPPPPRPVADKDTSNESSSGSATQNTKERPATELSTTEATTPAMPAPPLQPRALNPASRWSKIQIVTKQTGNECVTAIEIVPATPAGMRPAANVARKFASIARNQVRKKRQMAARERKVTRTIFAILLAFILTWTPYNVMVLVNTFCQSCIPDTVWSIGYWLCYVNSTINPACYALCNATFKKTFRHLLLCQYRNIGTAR
Method in brief: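 CHO cells expressing human M4 were exposed to compound, with Ca2+ response read by aequorin luminescence. Compounds were first tested at 1 μM, then at 10-fold lower concentrations if active; stimulation or inhibition was relative to the reference agonist. EC50/IC50 came from Hill-equation fits.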

[2] = molecular target: T1, Muscarine M4 (GPCR-A-MA-ACH M4); assay: Muscarine M4 receptor binding, 3H-Oxotremorine; settings: human M4, CHO cells; receptor binding, ligand 6 nM, 30 min/25° C.; read-out: RB Musc. M4 3H-Oxotremorine pKi (converted)
Method in brief: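 Human M1 ([3H]-pirenzepine), M3, and M4 ([3H]-4DAMP or [3H]-oxotremorine) receptor preparations incubated with radioligand and compound, first at 10 μM, then at 10-fold lower concentrations if inhibition exceeded 40%. Bound ligand separated by glass-fibre filtration and counted by scintillation. IC50 from Hill fit, converted to Ki via Cheng-Prusoff, reported as pKi.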

[3] = Stability in human liver homogenate (metabolic stability in vitro); assay type: in vitro ADME; settings: read-out: t ½
Description: DÖRJE, F., WESS, J., LAMBRECHT, G., TACKE, R., […], E. and BRANN, M. R. (1991) Antagonist binding profiles of five cloned human muscarinic receptor subtypes. J. Pharmacol. Exp. Ther., 256: 727-733. • […], M. H. (1990) Rat hippocampal muscarinic autoreceptors are similar to the M2 (cardiac) subtype: comparison with hippocampal M1, atrial M2 and ileal M3 receptors. Brit. J. Pharmacol., 99: 753-761. • PERALTA, E. G., ASHKENAZI, A., WINSLOW, J. W., SMITH, D. H., […], J. and CAPON, D. J. (1987) Distinct primary structures, ligand-binding properties and tissue-specific expression of four human muscarinic acetylcholine receptors. EMBO. J., 6: 3923-3929. Determination of Metabolic Stability (In Vitro)
Method used according to procedures described by DI, L. et al., Journal of Biomolecular Screening, Vol. 8, No. 4, 453-462 (2003).

[4] = molecular target: T2, Muscarine M3 (GPCR-A-MA-ACH M3) (Homo sapiens, UniProt P20309); assay: Muscarine M3 receptor binding; settings: human M3, CHO cells; receptor binding
T2 construct: expressed in transfected cells; host or cells: CHO cells
T2 sequence (P20309 whole entry): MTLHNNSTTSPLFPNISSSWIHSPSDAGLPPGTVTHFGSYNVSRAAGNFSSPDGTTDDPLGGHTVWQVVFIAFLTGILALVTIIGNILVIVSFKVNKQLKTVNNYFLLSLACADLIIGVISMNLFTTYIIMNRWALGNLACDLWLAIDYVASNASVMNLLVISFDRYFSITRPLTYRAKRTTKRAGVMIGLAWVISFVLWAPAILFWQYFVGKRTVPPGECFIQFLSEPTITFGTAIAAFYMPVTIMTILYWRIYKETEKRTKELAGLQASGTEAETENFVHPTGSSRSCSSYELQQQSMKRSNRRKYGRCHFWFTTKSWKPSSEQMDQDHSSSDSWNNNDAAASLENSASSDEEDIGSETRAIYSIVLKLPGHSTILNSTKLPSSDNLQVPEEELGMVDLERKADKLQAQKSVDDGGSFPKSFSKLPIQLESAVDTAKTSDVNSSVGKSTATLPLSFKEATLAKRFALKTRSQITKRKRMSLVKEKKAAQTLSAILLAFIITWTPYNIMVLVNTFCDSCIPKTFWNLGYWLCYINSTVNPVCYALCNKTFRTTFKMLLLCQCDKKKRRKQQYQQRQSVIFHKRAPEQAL

SMILES | EC50 [1] [nM] | Ki [2] [nM] | half-life [3] [h] | Ki [4] [nM]
CN1CCC=C(c2n[nH]cc2SCCC=C(F)F)C1 [Compound 22J, 3-[4-(4,4-Difluoro-but-3enylsulfanyl)-1H-pyrazol-3-yl]-1,2,5,6-tetrahydro-1-methylpyridine] | 251 | 63.1 | 2.15 | 316
C=CCCCSc1c[nH]nc1C1=CCCN(C)C1 [Compound 22L] | 63.1 | 63.1 | 0.933 | 316
CCOCCSc1c[nH]nc1C1=CCCN(C)C1 [Compound 22O, 3-[4-(2-Ethoxy-ethylsulfanyl)-1H-pyrazol-3-yl]-1,2,5,6-tetrahydro-1-methylpyridine] | 631 | 398 | 4.08 | 2510

Continued, values first:

EC50 [1] [nM] | Ki [2] [nM] | half-life [3] [h] | Ki [4] [nM] | SMILES
794 | 316 | 3.83 | 1000 | C=CCCCOc1c[nH]nc1C1=CCCN(C)C1 [Compound 33F, 3-(4-Pent-4-enyloxy-1H-pyrazol-3-yl)-1,2,5,6-tetrahydro-1-methylpyridine]
631 | 126 | 0.933 | 794 | CCCCCOc1c[nH]nc1C1=CCCN(C)C1 [Compound 33G, 3-(4-Pentyloxy-1H-pyrazol-3-yl)-1,2,5,6-tetrahydro-1-methylpyridine]
